Experimental data from the supplement of paper PMC10307832.

compound: CC1=CC(=CC=C1)NC2=NC(=CS2)C3=CC=NC=C3 + O=C(CCCCCCC(=O)Nc1ccccc1)NO [Vorinostat] (partner 1 µM); test: relative viability (nuclei count vs DMSO), 5 days (fraction); higher = more cells survive; details: first compound 0.08 µM
Summary of the method: (§1)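 Dosing by pin tool came one day after lung cancer cell lines were seeded in 1536-well plates, using either one drug or a fixed anchor-drug dose plus five library-drug doses (not always all listed) in √10 steps. After 5 days, nuclei were counted on 4× images. Relative viability is treated-well nuclei count divided by vehicle-well nuclei count, and values are medians of duplicate plates.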

Cell Line | relative viability
NCI-H522 | 0.91
NCI-H838 | 0.64
NCI-H1651 | 0.562
NCI-H1734 | 0.725
NCI-H2009 | 0.624
LU99A | 0.445
PC-14 | 0.84
LCLC-103H | 0.635
NCI-H596 | 0.552
NCI-H2228 | 0.343
EMC-BAC-2 | 0.367
NCI-H2087 | 0.615
HCC-366 | 0.248
NCI-H647 | 0.576
LK-2 | 0.356
NCI-H2126 | 0.579
NCI-H2342 | 0.749

Cell Line | relative viability
NCI-H1793 | 0.633
H3255 | 0.758
COR-L23 | 0.251
COR-L 105 | 0.831
IA-LM | 0.884
LOU-NH91 | 0.766
ChaGo-K-1 | 0.681
NCI-H358 | 0.633
NCI-H3122 | 0.912
HOP-62 | 0.531
HCC-44 | 1.02
SW 900 | 0.433
LXF-289 | 0.746
BEN | 0.566
NCI-H1648 | 0.279
HCC-78 | 0.513

same assay, conditions: first compound 0.253 µM

Cell Line | relative viability
NCI-H522 | 1.03
NCI-H838 | 0.599
NCI-H1651 | 0.547
NCI-H1734 | 0.77
NCI-H2009 | 0.664
LU99A | 0.601
PC-14 | 0.674
LCLC-103H | 0.69
NCI-H596 | 0.489
NCI-H2228 | 0.514
NCI-H2087 | 0.725
HCC-366 | 0.172
NCI-H647 | 0.531
LK-2 | 0.307
NCI-H2126 | 0.717
NCI-H2342 | 0.753

Cell Line | relative viability
NCI-H1793 | 0.616
H3255 | 0.723
COR-L23 | 0.422
COR-L 105 | 0.776
IA-LM | 0.954
LOU-NH91 | 0.776
ChaGo-K-1 | 0.735
NCI-H358 | 0.653
NCI-H3122 | 0.709
HOP-62 | 0.605
HCC-44 | 0.926
SW 900 | 0.357
LXF-289 | 0.808
BEN | 0.572
NCI-H1648 | 0.455
HCC-78 | 0.468

same assay, conditions: first compound 0.8 µM

Cell Line | relative viability
NCI-H522 | 1.01
NCI-H838 | 0.628
NCI-H1651 | 0.569
NCI-H1734 | 0.782
NCI-H2009 | 0.593
LU99A | 0.582
PC-14 | 0.715
LCLC-103H | 0.679
NCI-H596 | 0.453
NCI-H2228 | 0.42
EMC-BAC-2 | 0.579
NCI-H2087 | 0.762
HCC-366 | 0.255
NCI-H647 | 0.591
LK-2 | 0.527
NCI-H2126 | 0.711
NCI-H2342 | 0.721

Cell Line | relative viability
NCI-H1793 | 0.771
H3255 | 0.65
COR-L23 | 0.317
COR-L 105 | 0.724
IA-LM | 0.942
LOU-NH91 | 0.887
ChaGo-K-1 | 0.734
NCI-H358 | 0.518
NCI-H3122 | 1.05
HOP-62 | 0.591
HCC-44 | 0.826
SW 900 | 0.516
LXF-289 | 0.801
BEN | 0.503
NCI-H1648 | 0.548
HCC-78 | 0.477

same assay, conditions: first compound 2.53 µM

Cell Line | relative viability
NCI-H522 | 0.924
NCI-H838 | 0.582
NCI-H1651 | 0.464
NCI-H1734 | 0.752
NCI-H2009 | 0.642
LU99A | 0.443
PC-14 | 0.867
LCLC-103H | 0.667
NCI-H596 | 0.529
NCI-H2228 | 0.412
EMC-BAC-2 | 0.343
NCI-H2087 | 0.574
HCC-366 | 0.186
NCI-H647 | 0.498
LK-2 | 0.402
NCI-H2126 | 0.735

Cell Line | relative viability
NCI-H2342 | 0.716
NCI-H1793 | 0.632
H3255 | 0.666
COR-L23 | 0.375
COR-L 105 | 0.724
LOU-NH91 | 0.861
ChaGo-K-1 | 0.777
NCI-H358 | 0.662
NCI-H3122 | 1.03
HOP-62 | 0.584
HCC-44 | 0.797
SW 900 | 0.33
LXF-289 | 0.679
BEN | 0.536
NCI-H1648 | 0.422
HCC-78 | 0.41

same assay, conditions: first compound 8 µM

Cell Line | relative viability
NCI-H522 | 0.849
NCI-H838 | 0.524
NCI-H1651 | 0.596
NCI-H1734 | 0.681
NCI-H2009 | 0.7
LU99A | 0.479
PC-14 | 0.666
LCLC-103H | 0.567
NCI-H596 | 0.422
NCI-H2228 | 0.824
EMC-BAC-2 | 0.425
NCI-H2087 | 0.708
HCC-366 | 0.198
NCI-H647 | 0.454
LK-2 | 1
NCI-H2126 | 0.74
NCI-H2342 | 0.745

Cell Line | relative viability
NCI-H1793 | 0.8
H3255 | 0.717
COR-L23 | 0.36
COR-L 105 | 0.818
IA-LM | 0.78
LOU-NH91 | 0.436
ChaGo-K-1 | 0.777
NCI-H358 | 0.624
NCI-H3122 | 0.961
HOP-62 | 0.595
HCC-44 | 0.825
SW 900 | 0.188
LXF-289 | 0.718
BEN | 0.595
NCI-H1648 | 0.349
HCC-78 | 0.481

compound: Cc1ccc(NC(=O)c2ccc(CN3CCN(C)CC3)cc2)cc1Nc1nc(-c2cccnc2)cs1 [Masitinib] + Cc1cc(Nc2cc(N3CCN(C)CC3)nc(Sc3ccc(NC(=O)C4CC4)cc3)n2)n[nH]1 [Tozasertib] (partner 0.1 µM); test: as above; details: first compound 0.01 µM
Summary of the method: as §1

Cell Line | relative viability
NCI-H522 | 0.589
NCI-H1623 | 0.447
NCI-H838 | 0.25
NCI-H1651 | 0.743
NCI-H1734 | 0.285
NCI-H2009 | 0.762
LU99A | 0.289
PC-14 | 0.5
LCLC-103H | 0.43
NCI-H596 | 0.972
NCI-H2228 | 0.242
EMC-BAC-2 | 0.273
NCI-H2087 | 0.317
NCI-H647 | 0.212
LK-2 | 0.177
NCI-H2126 | 0.938

Cell Line | relative viability
NCI-H2342 | 0.464
NCI-H1793 | 0.337
H3255 | 0.437
COR-L23 | 0.207
COR-L 105 | 0.377
LOU-NH91 | 0.641
ChaGo-K-1 | 0.205
NCI-H358 | 0.118
HOP-62 | 0.366
HCC-44 | 0.865
SW 900 | 0.58
LXF-289 | 0.214
BEN | 0.481
NCI-H1648 | 0.477
HCC-78 | 0.338

same assay, conditions: first compound 0.03162 µM

Cell Line | relative viability
NCI-H1623 | 0.548
NCI-H838 | 0.281
NCI-H1651 | 0.68
NCI-H1734 | 0.27
NCI-H2009 | 0.71
LU99A | 0.221
PC-14 | 0.563
LCLC-103H | 0.497
NCI-H596 | 0.73
NCI-H2228 | 0.199
EMC-BAC-2 | 0.271
NCI-H2087 | 0.22
HCC-366 | 0.0721
NCI-H647 | 0.209
LK-2 | 0.167
NCI-H2126 | 0.819

Cell Line | relative viability
NCI-H2342 | 0.51
NCI-H1793 | 0.309
H3255 | 0.712
COR-L23 | 0.164
COR-L 105 | 0.353
LOU-NH91 | 0.666
ChaGo-K-1 | 0.202
NCI-H358 | 0.0987
NCI-H3122 | 0.502
HOP-62 | 0.349
HCC-44 | 1.13
SW 900 | 0.608
LXF-289 | 0.174
BEN | 0.506
HCC-78 | 0.446

same assay, conditions: first compound 0.1 µM

Cell Line | relative viability
NCI-H522 | 0.631
NCI-H1623 | 0.477
NCI-H838 | 0.273
NCI-H1651 | 0.685
NCI-H1734 | 0.318
NCI-H2009 | 0.744
LU99A | 0.282
PC-14 | 0.512
LCLC-103H | 0.506
NCI-H596 | 1.07
NCI-H2228 | 0.232
EMC-BAC-2 | 0.287
NCI-H2087 | 0.239
NCI-H647 | 0.394
LK-2 | 0.177
NCI-H2126 | 0.926

Cell Line | relative viability
NCI-H2342 | 0.523
NCI-H1793 | 0.33
H3255 | 0.502
COR-L23 | 0.168
COR-L 105 | 0.361
LOU-NH91 | 0.728
ChaGo-K-1 | 0.21
NCI-H358 | 0.114
HOP-62 | 0.408
HCC-44 | 0.876
SW 900 | 0.542
LXF-289 | 0.2
BEN | 0.561
NCI-H1648 | 0.452
HCC-78 | 0.423

same assay, conditions: first compound 0.3162 µM

Cell Line | relative viability
NCI-H522 | 0.615
NCI-H1623 | 0.398
NCI-H838 | 0.206
NCI-H1651 | 0.484
NCI-H1734 | 0.276
NCI-H2009 | 0.817
LU99A | 0.269
PC-14 | 0.482
LCLC-103H | 0.443
NCI-H596 | 1.08
NCI-H2228 | 0.217
EMC-BAC-2 | 0.264
NCI-H2087 | 0.211
HCC-366 | 0.0725
NCI-H647 | 0.261
LK-2 | 0.158
NCI-H2126 | 0.627

Cell Line | relative viability
NCI-H2342 | 0.514
NCI-H1793 | 0.238
H3255 | 0.687
COR-L23 | 0.124
COR-L 105 | 0.333
LOU-NH91 | 0.588
ChaGo-K-1 | 0.192
NCI-H358 | 0.113
NCI-H3122 | 0.387
HOP-62 | 0.414
HCC-44 | 0.799
SW 900 | 0.442
LXF-289 | 0.232
BEN | 0.483
NCI-H1648 | 0.397
HCC-78 | 0.447

same assay, conditions: first compound 1 µM

Cell Line | relative viability
NCI-H522 | 0.582
NCI-H1623 | 0.35
NCI-H838 | 0.236
NCI-H1651 | 0.583
NCI-H1734 | 0.272
NCI-H2009 | 0.658
LU99A | 0.257
PC-14 | 0.478
LCLC-103H | 0.434
NCI-H596 | 0.716
NCI-H2228 | 0.221
EMC-BAC-2 | 0.261
NCI-H2087 | 0.236
HCC-366 | 0.0736
NCI-H647 | 0.232
LK-2 | 0.165

Cell Line | relative viability
NCI-H2126 | 0.828
NCI-H2342 | 0.469
NCI-H1793 | 0.256
H3255 | 0.608
COR-L23 | 0.15
COR-L 105 | 0.317
LOU-NH91 | 0.626
ChaGo-K-1 | 0.21
NCI-H358 | 0.104
NCI-H3122 | 0.417
HOP-62 | 0.395
HCC-44 | 0.599
SW 900 | 0.455
LXF-289 | 0.177
BEN | 0.481
